The test system of data set [1] is BDL rats. Nature of the data set: Open Field Test (behavioral test of hepatic encephalopathy). The settings on record: for OpenField test results compared with high-dose biotin: data not shown. The class given is in vivo, rat. How it is done: Bile duct ligation (BDL) was used as a biliary cirrhosis model. All rats oh this group were operated on. They were randomly separated in two groups: BDL or simple laparotomy (SHAM, control-group). The BDL procedure was conducted as described previously (Kountouras J, Prolonged bile duct obstruction: a new experimental model for cirrhosis in the rat; Br J Exp Pathol 1984) and as controlled in our lab. Surgery was done under total anesthesia with […] isofluran (Aerrane, Baxter Maurepas) 3% mixed with air. Analgesia was done by sub-cutaneous injection of buprenorphin 2% (Buprécare 0.3 mg/ml, Axience) immediately before and after surgery. Rifaximin (Sigma Aldrich) was mixed with water at the dose of 50 mg/kg/d and began 3 days after the surgery. […] To assess the hepatic encephalopathy, the Open Field Test (BioSeb) was used, a behavioral test validated in BDL rats to explore neurological impairments (Leke, Plos One 2012; 7(5)). The test was done the day of sacrifice, in standardized experimental conditions (hour, place, light, noise). Each rat was placed in a square 1 m^2 box and was free to explore the arena during 6 minutes. Two areas were defined in the square, center and periphery. Mobility parameters were registered by a three-dimensional camera. The data analyzed after 6 minutes of experiments were: total distance travelled (cm), time of mobility (s), speed (cm/s), number of zone changes, distance travelled in the center and periphery zone, time spent in the center and periphery zone, number of rearing, total duration of rearing.

For another data set, the system named is IFNγ. In words: Plasmatic cytokines by multiplex kit. As to conditions: BDL rats treated with biotin (300 mg/kg food). Format: in vivo, rat. How it is done: (§1) The blood sample taken during the sacrifice was centrifuged and the plasma was used to determine the levels of hepatic transaminases, total and conjugated bilirubin and ammonia. Plasmatic cytokines (IL6, TNFa, IFNg) were determined by a multiplex commercial kit.

Data set [2] deals with rats, acute liver failure induced by single high dose of CCl4. As to conditions: prior art; biotin 0.5 mg/kg BW single intraperitoneal injection, or oral with uncontrolled amount; cited from earlier work.
The conditions of data set [3]: in vivo; cited from earlier work.
The test system of data set [4] is BDL rats. Nature of the data set: Blood ammoniemia in bile duct ligated rats. The class given is in vivo, rat. As to conditions: biotin 300 mg/kg of food (30 mg/kg BW/day), ANOVA p=0.01, FIG. 6. Here is the method:
Adult male Wistar rats (weight 175-200 g at the initiation of the surgical procedure) were obtained from the Janvier labs (Le Gesnest-Saint-Isle) and were used for the whole experiments.
Bile duct ligation (BDL) was used as a biliary cirrhosis model. All rats oh this group were operated on. They were randomly separated in two groups: BDL or simple laparotomy (SHAM, control-group). The BDL procedure was conducted as described previously (Kountouras J, Prolonged bile duct obstruction: a new experimental model for cirrhosis in the rat; Br J Exp Pathol 1984) and as controlled in our lab. Surgery was done under total anesthesia with inhalated isofluran (Aerrane, Baxter Maurepas) 3% mixed with air. Analgesia was done by sub-cutaneous injection of buprenorphin 2% (Buprécare 0.3 mg/ml, Axience) immediately before and after surgery.
as §1

Data set [5] has as its system BDL rats. Here is the method: The integrity of BBB was investigated by measuring the extravasation from intra-vascular compartment of dextran-Texas Red (Life Technologies) conjugated.
Six weeks after the surgery, all rats were anesthetized with inhaleted isofluran 3%. 0.75 ml of fluorochrome was injected in the femoral vein (Texas Red 10 kDa 10 mg/ml) and circulated during 6 minutes. […] To remove the intravascular localized dye, we did a large thoracotomy to perfuse 300 ml of cold PBS (40 ml/min with a peristaltic pump) through the left cardiac ventricle.
After decapitation, the brain was rapidly removed and the olfactory bulbs and brain stem eliminated with the cerebellum.
After grinding the right hemisphere by vigorously shaking and centrifugation, the amount of fluorescent dextran (μg/g) in supernatants was measured by fluorimetry (Tecan Infinite M200) at 620 nm upon excitation at 588 nm. The content of dye was valued by interpolation in standard curve.

The source of these data is US10117854B2, “Method for treating hepatic encephalopathy” (MEDDAY PHARMACEUTICALS, priority 2016, dated 2018).

Where two headings read alike, the source gives them in different places.

With `O=C(O)CCCC[C@@H]1SC[C@@H]2NC(=O)N[C@@H]21` [biotin], the “neurological impairements observed in the OpenField test” value with BDL rats [1] (biotin 50 mg/kg of food (5 mg/kg of animal/day)) is recorded as “not high enough to have an effect”; in the data set on BDL rats [1] (biotin 300 mg/kg of food (30 mg/kg of animal/day), vs BDL rats without biotin), “reduced”; in the data set on BDL rats [1] (biotin 300 mg/kg of food (30 mg/kg of animal/day), vs BDL rats without biotin, listed as Biotin), “comportmental improvement”. Besides, the “IFNγ levels in plasma” value in the data set on IFNγ is listed as “decreased”. The serum ammonium level result in data set [2] is on record as “decrease the serum ammonium level”. In data set [3], the plasma half life result is listed as “about 2 hours”. Moreover, the “hyperammonemia (blood ammoniemia)” value in the data set with BDL rats [4] is “reduce hyperammonemia”. Moreover, the “intra-cerebral quantity of dextran (BBB permeability)” value with BDL rats [5] (BDL rats, biotin 300 mg/kg of food, vs BDL rats on control diet) is given as “normalize”; in the data set on BDL rats [5] (BDL rats, biotin 300 mg/kg of food, vs BDL rats on control diet, listed as Biotin), “normalization of BBB permeability”; with BDL rats [5] (biotin 50 mg/kg of food), “did not reach normalization”.
In the case of `CO[C@H]1/C=C/O[C@@]2(C)Oc3c(C)c(O)c4c(O)c(c5c(nc6cc(C)ccn65)c4c3C2=O)NC(=O)/C(C)=C\C=C\[C@H](C)[C@H](O)[C@@H](C)[C@@H](O)[C@@H](C)[C@H](OC(C)=O)[C@@H]1C` [rifaximin, Rifaximin], in the data set with BDL rats [1] (rifaximin 50 mg/kg/d in water), the “OpenField test results compared with high-dose biotin” value is reported as “similar”.
As to `O=C([O-])c1ccccc1.[Na+]` [sodium benzoate, Sodium benzoate], the “OpenField test results compared with high-dose biotin” value in the data set with BDL rats [1] (sodium benzoate 200 mg/kg/d in water) is recorded as “similar”.
